In patent US10908153B2, “Pseudomonas aeruginosa inhibitor compounds” (priority 2015, dated 2021):

Target: T1, PscE-PscG interaction (Pseudomonas aeruginosa, UniProt P95435+Q9I317)
T1 construct: made in house; host or cells: E. coli
Assay: ELISA test of inhibition of the PscE-PscG interaction
Format: binding
Details: for inhibition at 25 µM: read-out: % inhibition PscE-PscG at 50 μm; for PscE-PscG at 50 μM: inhibition by new synthetic analogues at 50 μM, PscG 2.2 μM, PscE solution 3 μM; for inhibition at 50 µM: 4 h, read-out: PscE-PscG at 50 μM; for inhibitory effect compared with clioquinol: ELISA test, 50 μM, Table 2
Description: 50 μL of PscG protein at 1 μM (for screening libraries) or 2.2 μM (for screening newly synthesized molecules) is incubated in a NUNC 96-well plate for 8 h at 4° C. The wells are washed three times with 200 μL of 1× PBS/0.1% Tween20®. The wells are treated overnight at 4° C. with 200 μL of a 5% milk solution in 1× PBS/0.1% Tween20®. The solution is then discarded, and the plate is drained dry.
The test is carried out as follows:
Negative control (lowest signal level): 100 μL of buffer ([…] Tris-HCl, 250 mM NaCl, pH 8.0);
Positive control (highest signal level): 50 μL of buffer and 50 μL of a test solution at 25 (library screening) or 3 μM (screening of analogue molecules) of the PscE protein;
Test of the inhibitors: 40 μL buffer, 50 μL of a solution at 25 μM (library screening) or 3 μM (screening of analogue molecules) of PscE protein and 10 μL of the solution containing the inhibitor to be tested.
The solutions are left for 4 h at room temperature.
The wells are washed three times with 200 μL of 1× PBS/0.1% Tween20®. The anti-PscE antibody diluted to 1:2,000 in 1× PBS/0.1% Tween20®, 50 μL, is added and the whole is left 2 h at room temperature. The wells are washed three times with 200 μL of 1× PBS/0.1% Tween20®. The HRP-conjugated anti-mouse antibody is diluted to 1:5,000 in 1× PBS/0.1% Tween20® and 50 μL is added and left for 2 h at room temperature. The wells are washed three times with 200 μL of 1× PBS/0.1% Tween20®.
The ELISA test is developed by adding 50 μL of TMB reagent followed by incubation for 15 minutes at room temperature in the dark. The reaction is stopped by adding 50 μL of 2N HCl. The plate is read at 450 nm.

T1 sequence (Q9I317 whole entry): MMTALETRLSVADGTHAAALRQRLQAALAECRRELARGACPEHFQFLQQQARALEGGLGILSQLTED
T1 sequence (P95435 whole entry): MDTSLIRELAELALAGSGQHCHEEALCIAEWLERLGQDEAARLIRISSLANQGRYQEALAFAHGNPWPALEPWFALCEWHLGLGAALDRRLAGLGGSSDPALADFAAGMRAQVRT

NC(CO)C(=O)NNCc1ccc(O)c(O)c1O (stereo not shown) [Benserazide, reference compound]
IC50: 11 µM
inhibition at 25 µM: 86.3%

Oc1c(I)cc(Cl)c2cccnc12 [Clioquinol, reference compound]
IC50: 5 µM
PscE-PscG at 50 μM (240 min): 45.2%
inhibition at 25 µM: 93.7%

Cc1cc2c(C(C)C)c(O)c(O)c(C=O)c2c(O)c1-c1c(C)cc2c(C(C)C)c(O)c(O)c(C=O)c2c1O [Gossypol, reference compound]
inhibition at 25 µM: 73.9%

CC1(C)CC[C@]2(C(=O)O)CC[C@]3(C)C(=CC[C@@H]4[C@@]5(C)CC[C@H](O)[C@@](C)(CO)[C@@H]5CC[C@]43C)[C@@H]2C1 [Hederagenin, reference compound]
inhibition at 25 µM: 58%

O=c1c(O)c(-c2cc(O)c(O)c(O)c2)oc2cc(O)cc(O)c12 [Myricetin, reference compound]
inhibition at 25 µM: 80.5%

O=C(O)CN(CCN(CC(=O)O)CC(=O)O)CCN(CC(=O)O)CC(=O)O [Pentetic acid, reference compound]
% inhibition PscE-PscG at 50 μm (primary screening of libraries, 50 μm compound, PscG 1 μM, PscE solution 25 μM): 94%

[N-]=[N+]=NCCCCOCCCc1ccc[n+](CCCCOCCCc2cccnc2)c1 [molecule 17, 3-(3-(4-azidobutoxy)propyl)-1-(4-(3-(pyridin-3-yl)propoxy)butyl)pyridinium chloride]
PscE-PscG at 50 μM: no inhibition

[N-]=[N+]=NCCCCOCCCc1ccc[n+](CCCCCCOCCCc2cccnc2)c1 [molecule 18, 3-(3-(4-azidobutoxy)propyl)-1-(6-(3-(pyridin-3-yl)propoxy)hexyl)pyridinium chloride]
PscE-PscG at 50 μM: no inhibition

[N-]=[N+]=NCCCCCCOCCCc1ccc[n+](CCCCOCCCc2cccnc2)c1 [molecule 19, 3-(3-(6-azidohexyloxy)propyl)-1-(4-(3-(pyridin-3-yl)propoxy)butyl)pyridinium chloride]
inhibition at 50 µM: 19.8%

[N-]=[N+]=NCCCCOCCCc1ccc[n+](CCCCCCCCOCCCc2cccnc2)c1 [molecule 20, 3-(3-(4-azidobutoxy)propyl)-1-(8-(3-(pyridin-3-yl)propoxy)octyl)pyridinium chloride]
PscE-PscG at 50 μM: no inhibition

[N-]=[N+]=NCCCCCCOCCCc1ccc[n+](CCCCCCCCOCCCc2cccnc2)c1 [molecule 22, 3-(3-(6-azidohexyloxy)propyl)-1-(8-(3-(pyridin-3-yl)propoxy)octyl)pyridinium chloride]
inhibition at 50 µM: 88.8%
inhibitory effect compared with clioquinol: superior to clioquinol

[N-]=[N+]=NCCCCCCCCCCOCCCc1ccc[n+](CCCCCCOCCCc2cccnc2)c1 [molecule 24, 3-(3-(10-azidodecyloxy)propyl)-1-(6-(3-(pyridin-3-yl)propoxy)hexyl)pyridinium chloride]
inhibition at 50 µM: 38.6%

[N-]=[N+]=NCCCCCCCCCCCCOCCCc1ccc[n+](CCCCOCCCc2cccnc2)c1 [molecule 26, 3-(3-(12-azidododecyloxy)propyl)-1-(4-(3-(pyridin-3-yl)propoxy)butyl)pyridinium chloride]
inhibition at 50 µM: 44.2%

[N-]=[N+]=NCCCCCCOCCCc1ccc[n+](CCCCCCCCCCOCCCc2cccnc2)c1 [molecule 27, 3-(3-(6-azidohexyloxy)propyl)-1-(10-(3-(pyridin-3-yl)propoxy)decyl)pyridinium chloride]
inhibition at 50 µM: 39.6%

[N-]=[N+]=NCCCCCCOCCCc1ccc[n+](CCCCCCCCCCCCOCCCc2cccnc2)c1 [molecule 28, 3-(3-(6-azidohexyloxy)propyl)-1-(12-(3-(pyridin-3-yl)propoxy)dodecyl)pyridinium chloride]
inhibition at 50 µM: 37.8%

[N-]=[N+]=NCCCCCCCCOCCCc1ccc[n+](CCCCCCCCCCOCCCc2cccnc2)c1 [molecule 29, 3-(3-(8-azidooctyloxy)propyl)-1-(10-(3-(pyridin-3-yl)propoxy)decyl)pyridinium chloride]
inhibition at 50 µM: 24%

[N-]=[N+]=NCCCCCCCCCCOCCCc1ccc[n+](CCCCCCCCCCOCCCc2cccnc2)c1 [molecule 30, 3-(3-(10-azidodecyloxy)propyl)-1-(10-(3-(pyridin-3-yl)propoxy)decyl)pyridinium chloride]
inhibition at 50 µM: 52.8%
inhibitory effect compared with clioquinol: superior to clioquinol
